Results reported in paper PMC12680861, “Comparative analysis of LJ-4378 and tirzepatide in mouse models of obesity and weight regain” (Archives of Pharmacal Research, 2025).

Legend:
[1] = system: WR mice; experiment: WR model: glucose metabolism, gWAT inflammation, hepatic steatosis at 4 weeks post-treatment; assay type: in vivo, C57BL/6 J male mice; conditions: for macrophage marker F4/80 and CLS formation in gWAT: 4 weeks of the weight regaining phase
Source text: To assess post-treatment weight rebound (WR), the mice previously treated with vehicle, LJ-4378, or TZP were maintained on HFD for an additional 4 weeks following treatment cessation. Treatment protocols for the WR groups were identical to those of the HFD groups. In total, nine experimental groups were established: NCD + CTL, NCD + LJ, NCD + TZP; HFD + CTL, HFD + LJ, HFD + TZP; and WR + CTL, WR + LJ, WR + TZP. The volume of oxygen consumed (VO2), carbon dioxide produced (VCO2), respiratory exchange ratio (RER), energy expenditure, activity, and food intake were measured with PhenoMaster (TSE Systems, Bad Homburg, Germany). Indirect calorimetry was performed under controlled conditions, with a stable ambient temperature of 24 °C and a 12 h light/12-h dark cycle. Mice fed HFD were administered vehicle, LJ-4378, or TZP for 14 days, and the last 2 days of treatment were conducted during indirect calorimetry analysis. The WR model was examined by indirect calorimetry after 2 and 4 weeks of the weight regaining phase.
(§1) For protein extraction, we utilized PRO-RERP Protein Extraction Solution (17081, iNtRON Biotechnology, Gyeonggi-do, Korea), supplemented with […] Protease Inhibitor (S8820, Sigma, St. Louis, MO, USA) and PhosSTOP phosphatase inhibitor (#4906837001, Roche, Basel, Switzerland). Protein concentrations were determined using the Pierce BCA protein assay Kit (#23227, Thermo Fisher, Waltham, Massachusetts, USA) by measuring absorbance at 562 nm with a MultiSkan GO spectrophotometer (Thermo Fisher). The quantified proteins were loaded and separated in 12% SDS-PAGE gels and transferred to polyvinylidene difluoride (PVDF) membranes (Bio-Rad, Hercules, CA, USA). Membranes were blocked in 5% bovine serum albumin or skim milk in Tris-buffered saline with 0.1% Tween 20 (TBST) for 1 h, followed by overnight incubation with primary antibodies. The next day, membranes were washed 3 times with TBST and incubated for 1 h with horseradish peroxidase (HRP)-conjugated secondary antibody: Goat anti-rabbit (1:3000, #31460, Thermo Fisher) and Goat anti-Mouse IgG (1:3000, 115–035-174, Jackson ImmunoResearch). After secondary antibody incubation, membranes were washed 3 times with TBST and detected with the Fusion Solo chemiluminescence imaging system (Vilber Lourmat, France). EvolutionCapt (version 17.03) software and the ImageJ (National Institutes of Health, Bethesda, MD, USA) program were used for analysis and to quantify the protein level.
(§2) RT-qPCR was conducted according to the method (Cho et al. [2022]). The tissue samples were lysed in TRIzol (#15596018, Thermo Fisher), and the total RNA was extracted. The extracted RNA was synthesized into cDNA using the cDNA Reverse Transcription Kit (Applied Biosystems, Waltham, MA, USA). mRNA levels were quantified using iQ SYBR Green Supermix on the CFX Connect Real-time system (Bio-rad). Relative expression levels of each gene were calculated using the […] method, with the reference housekeeping gene as follows: Peptidylprolyl isomerase A (Ppia) for adipose tissue and glyceraldehyde-3-phosphate dehydrogenase (Gapdh) for hypothalamus.
The glucose tolerance test was conducted on mice fasted for 12 h with ad libitum access to water. Mice were intraperitoneally injected with 20% D-( +)-glucose (2 g/kg body weight, #49139, Sigma), and blood glucose levels were measured at each time point using a Gluco Doctor Top meter and strip (Allmedicus, South Korea).
Adipose tissues were fixed in 10% formalin (HT50128, Sigma) for 2 days and made into paraffin slides. The deparaffinized sections were stained with ClearView Staining Hematoxylin (MA010081, BBC Biochemical, Mount Vernon, WA, USA) and Eosin Y Alcoholic (#3610, BBC Biochemical) solution. The crown-like structure formation of gonadal white adipose tissue (gWAT) and triglyceride (TG) accumulation in the liver are observed using hematoxylin and eosin staining on paraffin slides. The images were captured using Nikon Elements (NIS BR Analysis ver 5.10.00). […]

[2] = system: HFD-fed mice; experiment: Hepatic PKA signaling (immunoblot, liver); assay type: in vivo, C57BL/6 J male mice; conditions: P-HSL/HSL, P-CREB/CREB
Procedure: To evaluate the anti-obesity effect in vivo, mice fed either NCD or HFD for 10 weeks were subsequently treated for up to 4 weeks. To control for injection route-related variables, all mice received both intraperitoneal (I.P.) and subcutaneous (S.C.) injections. […]
For protein extraction, we utilized PRO-RERP Protein Extraction Solution (17081, iNtRON Biotechnology, Gyeonggi-do, Korea), supplemented with […] […] Protein concentrations were determined using the Pierce BCA protein assay Kit (#23227, Thermo Fisher, Waltham, Massachusetts, USA) by measuring absorbance at 562 nm with a MultiSkan GO spectrophotometer (Thermo Fisher). The quantified proteins were loaded and separated in 12% SDS-PAGE gels and transferred to polyvinylidene difluoride (PVDF) membranes (Bio-Rad, Hercules, CA, USA). […] After secondary antibody incubation, membranes were washed 3 times with TBST and detected with the Fusion Solo chemiluminescence imaging system (Vilber Lourmat, France). EvolutionCapt (version 17.03) software and the ImageJ (National Institutes of Health, Bethesda, MD, USA) program were used for analysis and to quantify the protein level.
Western blot analysis of P-HSL/HSL and P-CREB/CREB in liver. […] Statistical significance was determined using two-way ANOVA followed by Bonferroni post hoc test.

[3] = system: HFD-fed mice; experiment: Adipose tissue (gWAT) and systemic inflammation in HFD-fed mice; assay type: in vivo, C57BL/6 J male mice; conditions: for serum TNF-α levels: ELISA; for macrophage accumulation in gWAT (F4/80 protein, crown-like structures): compared with HFD controls
Procedure: To evaluate the anti-obesity effect in vivo, mice fed either NCD or HFD for 10 weeks were subsequently treated for up to 4 weeks. To control for injection route-related variables, all mice received both intraperitoneal (I.P.) and subcutaneous (S.C.) injections. The administration were as follows: LJ-4378 treated mice received LJ-4378, which was synthesized in our laboratory at > 95% purity (1 mg/kg/day, I.P.) (Hou et al. [2010]; Kim et al. [2022]) along with the vehicle for TZP (40 mM Tris–HCl, pH 8, S.C.); TZP treated mice received TZP (Samms et al. [2021]; Kim et al. [2022]) (LY3298176, MedChemExpress, Monmouth Junction, NJ, USA) (10 nmol/kg/day, S.C.) along with the vehicle for LJ-4378 (0.2% DMSO, I.P.); vehicle control mice received both vehicles (0.2% DMSO, I.P. and 40 mM Tris–HCl, pH 8, S.C.)
The serum TNF-α level was measured using TNF-alpha ELISA MTA00B (R&D system) in accordance with the manufacturer’s protocol.
as §1, §2
Adipose tissues were fixed in 10% formalin (HT50128, Sigma) for 2 days and made into paraffin slides. The deparaffinized sections were stained with ClearView Staining Hematoxylin (MA010081, BBC Biochemical, Mount Vernon, WA, USA) and Eosin Y Alcoholic (#3610, BBC Biochemical) solution. The crown-like structure formation of gonadal white adipose tissue (gWAT) and triglyceride (TG) accumulation in the liver are observed using hematoxylin and eosin staining on paraffin slides. The images were captured using Nikon Elements (NIS BR Analysis ver 5.10.00).

[4] = Preliminary study, I.V. bolus administration to mice; assay type: in vivo

## Tirzepatide [TZP, reference compound]
[1]
  macrophage marker F4/80 and CLS formation in gWAT: re-elevated
[2]
  phosphorylation of downstream targets of PKA in the liver: Neither LJ-4378 nor TZP altered the phosphorylation
[3]; HFD-fed mice
  serum TNF-α levels: reduced
[3]; HFD-fed mice, RT-qPCR
  Adgre1 and Tnf-α expression in gWAT: remarkably suppressed
[3]
  macrophage accumulation in gWAT (F4/80 protein, crown-like structures): significantly reduced

## CCCCC#Cc1nc(N)c2ncn([C@@H]3SC[C@@H](O)[C@H]3O)c2n1 [LJ-4378]
[4]
  terminal phase half-life: approximately 0.29 h
[1]
  macrophage marker F4/80 and CLS formation in gWAT: maintained lower levels of macrophage accumulation
[1]; 4 weeks post-treatment, WR
  fasting glucose levels, versus TZP-treated group: lower
  glucose clearance in glucose tolerance test, versus TZP-treated group: enhanced glucose clearance
  hepatic triglyceride (TG) deposition, versus TZP: significantly lower
[1]; after 4 weeks of WR
  Tnf-α and Arg1 mRNA levels in gWAT: reduced Tnf-α and increased Arg1 mRNA levels were maintained
[2]
  phosphorylation of downstream targets of PKA in the liver: Neither LJ-4378 nor TZP altered the phosphorylation
[3]; HFD-fed mice
  serum TNF-α levels: reduced
[3]; HFD-fed mice, RT-qPCR
  Adgre1 and Tnf-α expression in gWAT: remarkably suppressed
  M2-like macrophage markers (Arg1, Clec10a, Chil3, Il-10) in gWAT: selectively upregulated
[3]
  macrophage accumulation in gWAT (F4/80 protein, crown-like structures): significantly reduced
